Data reported in ChEMBL document CHEMBL1909046, “DrugMatrix in vitro pharmacology data”.

Columns and labels:
[1] = biological target: T1, 5-hydroxytryptamine receptor 2C (Homo sapiens, UniProt P28335); assay: DRUGMATRIX: Serotonin (5-Hydroxytryptamine) 5-HT2C radioligand binding (ligand: [3H] Mesulergine); assay type: cell membranes, CHO-K1, Membrane; details: Not Active = under 50% inhibition at 10 µM
T1 sequence (P28335 whole entry): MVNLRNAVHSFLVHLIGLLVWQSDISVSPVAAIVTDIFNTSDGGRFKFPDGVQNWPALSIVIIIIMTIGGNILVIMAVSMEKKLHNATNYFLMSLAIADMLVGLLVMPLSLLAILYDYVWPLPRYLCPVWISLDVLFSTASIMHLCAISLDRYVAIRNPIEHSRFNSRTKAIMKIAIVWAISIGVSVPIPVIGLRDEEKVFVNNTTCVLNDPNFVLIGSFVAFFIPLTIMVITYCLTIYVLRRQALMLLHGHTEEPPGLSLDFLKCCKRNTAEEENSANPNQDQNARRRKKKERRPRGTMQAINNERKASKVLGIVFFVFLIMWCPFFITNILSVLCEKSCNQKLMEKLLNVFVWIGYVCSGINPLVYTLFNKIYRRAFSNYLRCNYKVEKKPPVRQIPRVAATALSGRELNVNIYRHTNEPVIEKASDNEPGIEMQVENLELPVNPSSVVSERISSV

[2] = biological target: Insulin receptor (Rattus norvegicus, UniProt P15127); assay type: cell membranes, Wistar, Liver, Membrane; also: in other assays of this panel Not Active means under 50% inhibition at 10 µM
[3] = DRUGMATRIX: Potassium Channel [KATP] radioligand binding (ligand: [3H] Glyburide); assay type: cell membranes, Membrane; details: hit-t15; Not Active = under 50% inhibition at 10 µM
[4] = biological target: T2, Cathepsin G (Homo sapiens, UniProt P08311); assay type: tissue-based; details: neutrophil;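 also: inhibition of Cathepsin G enzyme activity, tested on an AMC-conjugated peptide substrate; in other assays of this panel Not Active means under 50% inhibition at 10 µM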
T2 sequence (P08311 whole entry): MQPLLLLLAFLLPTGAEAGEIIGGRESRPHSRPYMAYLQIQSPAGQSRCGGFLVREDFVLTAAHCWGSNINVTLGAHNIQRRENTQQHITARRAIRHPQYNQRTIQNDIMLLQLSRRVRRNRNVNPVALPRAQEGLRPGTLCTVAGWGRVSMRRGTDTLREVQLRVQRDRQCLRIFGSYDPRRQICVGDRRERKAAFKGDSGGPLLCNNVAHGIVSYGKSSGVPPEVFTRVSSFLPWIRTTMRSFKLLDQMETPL

[5] = biological target: Protein kinase C alpha type (Homo sapiens, UniProt P17252); assay type: cell-based; details: sf9;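 also: inhibition of PKCalpha kinase activity measured in an enzyme assay with histone as the phosphorylation substrate; in other assays of this panel Not Active means under 50% inhibition at 10 µM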
[6] = biological target: Tyrosine-protein kinase Lck (Homo sapiens, UniProt P06239); assay: DRUGMATRIX: Protein Tyrosine Kinase, LCK enzyme inhibition (substrate: Poly(Glu:Tyr)); assay type: cell-based, Insect cells; details: Not Active = under 50% inhibition at 10 µM
Sequence of Tyrosine-protein kinase Lck (P06239 whole entry): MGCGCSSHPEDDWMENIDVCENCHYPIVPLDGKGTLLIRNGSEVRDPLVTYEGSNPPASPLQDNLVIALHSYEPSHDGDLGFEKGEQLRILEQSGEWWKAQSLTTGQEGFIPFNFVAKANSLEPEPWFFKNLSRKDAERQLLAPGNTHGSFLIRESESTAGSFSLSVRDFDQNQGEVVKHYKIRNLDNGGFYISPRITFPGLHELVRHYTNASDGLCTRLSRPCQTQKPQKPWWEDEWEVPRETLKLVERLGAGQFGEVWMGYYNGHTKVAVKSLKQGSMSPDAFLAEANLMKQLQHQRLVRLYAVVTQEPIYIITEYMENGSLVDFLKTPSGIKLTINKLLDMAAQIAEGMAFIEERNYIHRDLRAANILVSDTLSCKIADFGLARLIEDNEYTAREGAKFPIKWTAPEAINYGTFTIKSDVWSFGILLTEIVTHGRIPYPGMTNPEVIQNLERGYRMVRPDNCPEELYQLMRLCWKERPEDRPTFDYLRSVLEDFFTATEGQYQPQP

Sequence of Insulin receptor (P15127 27-759 limits assumed): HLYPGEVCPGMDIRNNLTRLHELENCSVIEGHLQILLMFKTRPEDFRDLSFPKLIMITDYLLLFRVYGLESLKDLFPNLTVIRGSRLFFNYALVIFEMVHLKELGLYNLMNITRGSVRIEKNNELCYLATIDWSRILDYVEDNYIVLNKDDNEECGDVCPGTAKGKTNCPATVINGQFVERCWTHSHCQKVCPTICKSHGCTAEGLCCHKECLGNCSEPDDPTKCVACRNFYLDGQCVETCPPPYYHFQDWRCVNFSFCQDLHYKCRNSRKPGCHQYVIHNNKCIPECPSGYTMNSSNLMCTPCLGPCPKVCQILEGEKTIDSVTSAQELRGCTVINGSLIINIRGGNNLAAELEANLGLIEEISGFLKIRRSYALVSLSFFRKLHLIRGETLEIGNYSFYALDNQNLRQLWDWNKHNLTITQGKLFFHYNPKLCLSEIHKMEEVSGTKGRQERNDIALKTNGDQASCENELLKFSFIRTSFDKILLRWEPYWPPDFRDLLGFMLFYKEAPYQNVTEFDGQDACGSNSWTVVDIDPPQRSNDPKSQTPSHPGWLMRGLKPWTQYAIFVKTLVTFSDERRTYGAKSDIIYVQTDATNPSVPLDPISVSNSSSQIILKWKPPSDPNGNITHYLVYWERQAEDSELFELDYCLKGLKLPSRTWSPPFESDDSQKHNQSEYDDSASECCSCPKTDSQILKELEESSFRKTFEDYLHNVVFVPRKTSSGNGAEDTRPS
Sequence of Insulin receptor (P15127 764-1383 limits assumed): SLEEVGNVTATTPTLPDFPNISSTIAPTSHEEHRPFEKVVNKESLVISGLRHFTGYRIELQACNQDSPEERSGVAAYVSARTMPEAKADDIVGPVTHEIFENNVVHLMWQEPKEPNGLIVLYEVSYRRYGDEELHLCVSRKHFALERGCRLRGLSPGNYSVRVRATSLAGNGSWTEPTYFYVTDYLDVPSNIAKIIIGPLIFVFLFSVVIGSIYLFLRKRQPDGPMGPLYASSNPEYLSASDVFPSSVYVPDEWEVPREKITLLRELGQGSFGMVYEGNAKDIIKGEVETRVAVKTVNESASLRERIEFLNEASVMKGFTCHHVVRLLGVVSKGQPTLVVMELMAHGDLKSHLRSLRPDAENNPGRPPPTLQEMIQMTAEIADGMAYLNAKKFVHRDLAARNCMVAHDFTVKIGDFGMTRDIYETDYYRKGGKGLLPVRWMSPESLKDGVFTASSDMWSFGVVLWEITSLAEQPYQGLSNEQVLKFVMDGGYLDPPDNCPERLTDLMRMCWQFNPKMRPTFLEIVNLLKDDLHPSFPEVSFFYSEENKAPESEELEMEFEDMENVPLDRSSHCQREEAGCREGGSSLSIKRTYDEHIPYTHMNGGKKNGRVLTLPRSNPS

| Compound | IC50 ([1]; cho-k1) | IC50 [2] | IC50 [3] | Ki [3] | IC50 [4] | IC50 [5] | IC50 ([6]; insect cells) | IC50 ([1]; read-out: IC50) [nM] | Ki ([1]; read-out: Ki) [nM] | IC50 ([6]; read-out: IC50) [nM] | Ki ([6]; insect cells) |
| --- | --- | --- | --- | --- | --- | --- | --- | --- | --- | --- | --- |
| Nn1nnc2ccccc21 | Not Active | Not Active | Not Active | Not Active | Not Active | Not Active | Not Active | – | – | – | – |
| CC[C@]1(O)CC[C@H]2[C@@H]3CCC4=CCCC[C@@H]4[C@H]3CC[C@@]21C | Not Active | Not Active | Not Active | Not Active | Not Active | Not Active | Not Active | – | – | – | – |
| N[C@@H](Cc1ccc(F)cc1)C(=O)O | Not Active | Not Active | Not Active | Not Active | Not Active | Not Active | Not Active | – | – | – | – |
| CCOC(=O)[C@H](CCc1ccccc1)N[C@@H](C)C(=O)N1Cc2ccccc2C[C@H]1C(=O)O | Not Active | Not Active | Not Active | Not Active | Not Active | Not Active | Not Active | – | – | – | – |
| O=C(c1ccccc1Cl)N1CCC(Cc2ccccc2)CC1 | Not Active | Not Active | Not Active | Not Active | Not Active | Not Active | Not Active | – | – | – | – |
| CCOC(=O)[C@H](CCc1ccccc1)N[C@@H](C)C(=O)N1CCC[C@H]1C(=O)O | Not Active | Not Active | Not Active | Not Active | Not Active | Not Active | Not Active | – | – | – | – |
| Clc1cc2c(cc1Cl)Oc1cc(Cl)c(Cl)cc1O2 [2,3,7,8-TETRACHLORODIBENZO-P-DIOXIN] | Not Active | Not Active | Not Active | Not Active | Not Active | Not Active | Not Active | – | – | – | – |
| C=C1/C(=C\C=C2/CCC[C@]3(C)[C@@H]([C@H](C)CCCC(C)C)CC[C@@H]23)C[C@@H](O)C[C@@H]1O [ALFACALCIDOL] | Not Active | Not Active | Not Active | Not Active | Not Active | Not Active | Not Active | – | – | – | – |
| CCCCCC[C@H]1C(=O)O[C@H](C)[C@H](NC(=O)c2cccc(NC=O)c2O)C(=O)O[C@@H](C)[C@@H]1OC(=O)CC(C)C [ANTIMYCIN A] | Not Active | Not Active | Not Active | Not Active | Not Active | Not Active | Not Active | – | – | – | – |
| C[C@@H]1CC[C@H]2[C@@H](C)C(=O)O[C@@H]3O[C@@]4(C)CC[C@@H]1[C@]32OO4 [ARTEMISININ] | Not Active | Not Active | Not Active | Not Active | Not Active | Not Active | Not Active | – | – | – | – |
| CO[C@H]1[C@@H](O)[C@H](N)[C@@H](O[C@H]2O[C@H]([C@H](C)N)CC[C@H]2N)[C@H](O)[C@@H]1N(C)C(=O)CN [ASTROMICIN] | Not Active | Not Active | Not Active | Not Active | Not Active | Not Active | Not Active | – | – | – | – |
| [N-]=[N+]=CC(=O)OC[C@H](N)C(=O)O [AZASERINE] | Not Active | Not Active | Not Active | Not Active | Not Active | Not Active | Not Active | – | – | – | – |
| CC[C@H]1OC(=O)[C@H](C)[C@@H](O[C@H]2C[C@@](C)(OC)[C@@H](O)[C@H](C)O2)[C@H](C)[C@@H](O[C@@H]2O[C@H](C)C[C@H](N(C)C)[C@H]2O)[C@](C)(O)C[C@@H](C)CN(C)[C@H](C)[C@@H](O)[C@]1(C)O [AZITHROMYCIN] | Not Active | Not Active | Not Active | Not Active | Not Active | Not Active | Not Active | – | – | – | – |
| CC(C)(C)c1ccc(S(=O)(=O)/C=C/C#N)cc1 [BAY-11-7085] | Not Active | Not Active | Not Active | Not Active | Not Active | Not Active | Not Active | – | – | – | – |
| CCc1oc2ccccc2c1C(=O)c1cc(Br)c(O)c(Br)c1 [BENZBROMARONE] | Not Active | Not Active | Not Active | Not Active | Not Active | Not Active | Not Active | – | – | – | – |
| O=c1cc(-c2ccccc2)oc2ccc3ccccc3c12 [BETA-NAPHTHOFLAVONE] | Not Active | Not Active | Not Active | Not Active | Not Active | Not Active | Not Active | – | – | – | – |
| CC(C)C[C@H]1C(=O)N2CCC[C@H]2[C@]2(O)O[C@](NC(=O)[C@@H]3C=C4c5cccc6[nH]c(Br)c(c56)C[C@H]4N(C)C3)(C(C)C)C(=O)N12 [BROMOCRIPTINE] | – | Not Active | Not Active | Not Active | Not Active | Not Active | Not Active | 532 | 278 | – | – |
| CS(=O)(=O)OCCCCOS(C)(=O)=O [BUSULFAN] | Not Active | Not Active | Not Active | Not Active | Not Active | Not Active | Not Active | – | – | – | – |
| O=C(/C=C/c1ccc(O)c(O)c1)OCCc1ccccc1 [CAFFEIC ACID PHENETHYL ESTER] | Not Active | Not Active | Not Active | Not Active | Not Active | Not Active | – | – | – | 2890 | – |
| COc1cc(CNC(=O)CCCC/C=C/C(C)C)ccc1O [CAPSAICIN] | Not Active | Not Active | Not Active | Not Active | Not Active | Not Active | Not Active | – | – | – | – |
| NC(=O)N1c2ccccc2C=Cc2ccccc21 [CARBAMAZEPINE] | Not Active | Not Active | Not Active | Not Active | Not Active | Not Active | Not Active | – | – | – | – |
| CCOC(=O)n1ccn(C)c1=S [CARBIMAZOLE] | Not Active | Not Active | Not Active | Not Active | Not Active | Not Active | – | – | – | – | Not Active |
| Oc1ccccc1O [CATECHOL] | Not Active | Not Active | Not Active | Not Active | Not Active | Not Active | Not Active | – | – | – | – |
| CO[C@@]1(NC(=O)CSCC#N)C(=O)N2C(C(=O)O)=C(CSc3nnnn3C)CS[C@@H]21 [CEFMETAZOLE] | Not Active | Not Active | Not Active | Not Active | Not Active | Not Active | Not Active | – | – | – | – |
| CN(C(=O)CCCOc1ccc2[nH]c(=O)ccc2c1)C1CCCCC1 [CILOSTAMIDE] | Not Active | Not Active | Not Active | Not Active | Not Active | Not Active | Not Active | – | – | – | – |
| CC(C)(Oc1ccc(C2CC2(Cl)Cl)cc1)C(=O)O (centres undefined) [CIPROFIBRATE] | Not Active | Not Active | Not Active | Not Active | Not Active | Not Active | Not Active | – | – | – | – |
| Nc1nc(Cl)nc2c1ncn2[C@H]1C[C@H](O)[C@@H](CO)O1 [CLADRIBINE] | Not Active | Not Active | Not Active | Not Active | Not Active | Not Active | Not Active | – | – | – | – |
| CC[C@H]1OC(=O)[C@H](C)[C@@H](O[C@H]2C[C@@](C)(OC)[C@@H](O)[C@H](C)O2)[C@H](C)[C@@H](O[C@@H]2O[C@H](C)C[C@H](N(C)C)[C@H]2O)[C@](C)(OC)C[C@@H](C)C(=O)[C@H](C)[C@@H](O)[C@]1(C)O [CLARITHROMYCIN] | Not Active | Not Active | Not Active | Not Active | Not Active | Not Active | Not Active | – | – | – | – |
| CCC[C@@H]1C[C@@H](C(=O)N[C@@H]([C@H]2O[C@H](SC)[C@H](O)[C@@H](O)[C@H]2O)[C@H](C)Cl)N(C)C1 [CLINDAMYCIN] | Not Active | Not Active | Not Active | Not Active | Not Active | Not Active | Not Active | – | – | – | – |
| CC[C@H](C)C(=O)O[C@H]1C[C@@H](C)C=C2C=C[C@H](C)[C@H](CC[C@@H]3C[C@@H](O)CC(=O)O3)[C@H]21 [LOVASTATIN] | Not Active | Not Active | – | – | Not Active | Not Active | Not Active | – | – | – | – |
